Experiments:
Format in all cases: in vivo, human
nephritis patients = experiment: treatment of nephritis patients, rates by traditional standard; settings: six or more cycles, course of seven days
From the text: Containing native cyclooxygenase (COX-2) doxorubicin pharmaceutical compositions of natural (atm) doxorubicin or a natural substance in the class of drugs for treating nephritis application preparation, nephritis patients diagnosed according to the usual Standard diagnosis; “effective”, “markedly”, “cure” and other standards are in accordance with the traditional standard. Dose of the drug present invention are: adult three times daily 1.8 g. Course of seven days. When six or more cycles, the treatment effect of contrast in the following table: […]

[1] = tested on: cancer (lymphoma) patients; experiment: treatment of tumors, cancer (lymphoma) patients
From the text: Containing native human cyclooxygenase (COX-2), doxorubicin natural (atm) or natural substance class doxorubicin in the preparation of a pharmaceutical composition of a medicament for the treatment of tumors, cancer (lymphoma) patients diagnosed is the usual criteria for diagnosis; “effective”, “cured”, “cure” and the like in accordance with conventional criteria standards. Dose of the drug present invention are: adult three times a day, every 1.8 go for 7 days. When eight or more cycles, the treatment effect of contrast in the following table: […]

[2] = tested on: general inflammation in patients; experiment: general anti-inflammatory analgesic use, general inflammation patients; settings: two or more cycles
From the text: Containing native human cyclooxygenase (COX-2), doxorubicin natural (atm) or a pharmaceutical composition of doxorubicin substances of natural origin as a general anti-inflammatory analgesic drugs applied, general inflammation in patients diagnosed according to the usual criteria for diagnosis; “effective”, “cured”, “cure” and the like in accordance with conventional criteria standards. Dose of the drug present invention are: adult three times daily 1.8 g. Course of seven days When two or more cycles, the treatment effect of contrast in the following table: […]

CC(C)(C)NCC(O)COc1ccccc1C#N (stereo not drawn) [Bunitrolol]
Markedly (nephritis patients): 59%
Effective (nephritis patients; invention drug adult three times daily 1.8 g): 93.2%

CC(=O)O[C@H]1C(=O)[C@@]2(C)[C@H]([C@H](OC(=O)c3ccccc3)[C@]3(O)C[C@H](OC(=O)[C@H](O)[C@@H](NC(=O)c4ccccc4)c4ccccc4)C(C)=C1C3(C)C)[C@]1(OC(C)=O)CO[C@@H]1C[C@@H]2O [Paclitaxel]
Cure ([1]; eight or more cycles): 16.3%
Invalid ([1]; eight or more cycles): 2.3%
Markedly ([1]; eight or more cycles): 32.6%
Effective ([1]; eight or more cycles of 7 days, invention drug adult three times a day 1.8 g): 48.8%

[H]/N=C(/N)N[C@H]1[C@H](O)[C@@H](O)[C@H](O[C@@H]2O[C@@H](C)[C@](O)(C=O)[C@H]2O[C@@H]2O[C@@H](CO)[C@H](O)[C@@H](O)[C@@H]2NC)[C@@H](N/C(N)=N\[H])[C@@H]1O [Streptomycin]
Invalid [2]: 17.14%
Markedly [2]: 78.57%
Effective ([2]; course of seven days, invention drug adult three times daily 1.8 g): 14.29%

— patent publication US20150118214A1, “Pharmaceutical composition containing human cyclooxygenase and doxorubicin or doxorubicin analogue, preparation method therefor and use thereof in preparing drugs” (priority 2012, published 2015)
